In patent US12403127B2, “Specifically meso-substituted porphyrins and chlorins for photodynamic therapy” (biolitec Unternehmensbeteiligungs II AG, priority 2014, dated 2025):

Assays:
[1] = system: CAL-27 (human tongue squamous cell carcinoma cell line); assay: Cell test of photosensitizing activity (XTT cell viability after 652 nm laser irradiation) in CAL-27; format: cell-based; settings: 2 or 10 μM photosensitizer, 24 h incubation, 50 J/cm^2, XTT viability 24 h after irradiation
Method: (§1) The photosensitizing activity was determined in the following cell lines: • HT29 (human colon adenocarcinoma cell line) • L929 (mouse fibroblast cell line) • A431 (human epidermoid carcinoma cell line) • A253 (submaxillary salivary gland, epidermoid cell line) • CAL-27 (human tongue squamous cell carcinoma cell line).
(§2) The cell lines were grown in DMEM (PAA Laboratories GmbH) supplemented with 10% heat-inactivated fetal calf serum (FCS, PAA Laboratories GmbH), 1% penicillin (10000 IU) and streptomycin (10000 μg/ml, PAA Laboratories GmbH). Cells were kept as a monolayer culture in a humidified incubator (5% CO2 in air at 37° C.).
(§3) A photosensitizer stock solution (2 mM) was performed in DMSO and was kept in the dark at 4° C. Further dilution was performed in DMEM medium without phenol red supplemented with 10% FCS to reach a final photosensitizer concentration of 2 or 10 μM, respectively.
(§4) 2·10^4 cells/ml were seeded in micro plates ([…]). Cells were incubated with fresh medium (DMEM without phenol red) containing 10% FCS with 2 or 10 μM of the photosensitizer for 24 h before light exposure. […]
(§5) The cell viability was assessed by the XTT assay. […]
(§6) The absorbance of the samples was measured with a spectrophotometer (Infinite 200, Tecan Group Ltd.) at a wavelength of 490 nm. In order to measure reference absorbance (to measure non-specific readings) a wavelength of 630-690 nm was used.

[2] = system: HT29 (human colon adenocarcinoma cell line); assay: Cell test of photosensitizing activity (XTT cell viability after 652 nm laser irradiation) in HT29; format: cell-based; settings: 2 or 10 μM photosensitizer, 24 h incubation, 50 J/cm^2, XTT viability 24 h after irradiation
Method: as §1, §2, §3, §4, §5, §6

For “5,10,15-tris-(3-hydroxy-phenyl)-20-[4-(butyloxy)-tetra-fluorphenyl]-porphyrin [Example 7.13]”, the “PDT activity against CAL-27 cells” value [1] was “show PDT activity” and the “photodynamic activity (photo toxicity, "Laser") in the HT29 cell line” value [2] was “lack activity”.
